Laboratory results: publication PMC4220016, “The binding characteristics and orientation of a novel radioligand with distinct properties at 5-HT3A and 5-HT3AB receptors” (Neuropharmacology, 2014)
“And” between values parts separate entries of the source, which are not always exact repeats. Identical values can stand only once. Like-named read-outs stand apart in the source and are kept apart here.

Experiments:
[1] = tested on: 5-HT3A receptors; parameters: method as in Nakamura et al., 2013; details: ref Nakamura et al., 2013; cited from earlier work
[2] = tested on: 5-HT3AB receptors; parameters: method as in Nakamura et al., 2013; details: ref Nakamura et al., 2013; cited from earlier work
[3] = molecular target: T1, 5-HT3A receptors (Homo sapiens, UniProt P46098); details: competition with 0.7 nM [^3H]BRL43694
T1 sequence (P46098 24-478): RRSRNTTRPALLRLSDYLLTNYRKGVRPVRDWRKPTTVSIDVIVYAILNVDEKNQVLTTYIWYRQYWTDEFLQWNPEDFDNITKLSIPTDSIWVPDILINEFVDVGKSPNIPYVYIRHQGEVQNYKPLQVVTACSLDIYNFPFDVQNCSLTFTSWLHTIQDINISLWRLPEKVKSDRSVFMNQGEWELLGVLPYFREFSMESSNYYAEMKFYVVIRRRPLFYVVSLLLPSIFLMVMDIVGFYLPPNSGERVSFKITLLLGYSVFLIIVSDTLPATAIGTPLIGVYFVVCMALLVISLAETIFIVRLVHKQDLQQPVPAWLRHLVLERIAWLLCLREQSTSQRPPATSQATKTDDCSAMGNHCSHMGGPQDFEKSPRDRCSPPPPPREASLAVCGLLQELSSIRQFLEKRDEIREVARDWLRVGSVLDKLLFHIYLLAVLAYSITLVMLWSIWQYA

[4] = molecular target: T2, 5-HT3AB receptors (Homo sapiens, UniProt O95264+P46098); details: competition with 0.7 nM [^3H]BRL43694
T2 sequence (P46098 24-478): T1 sequence (P46098 24-478)
T2 sequence (O95264 22-441): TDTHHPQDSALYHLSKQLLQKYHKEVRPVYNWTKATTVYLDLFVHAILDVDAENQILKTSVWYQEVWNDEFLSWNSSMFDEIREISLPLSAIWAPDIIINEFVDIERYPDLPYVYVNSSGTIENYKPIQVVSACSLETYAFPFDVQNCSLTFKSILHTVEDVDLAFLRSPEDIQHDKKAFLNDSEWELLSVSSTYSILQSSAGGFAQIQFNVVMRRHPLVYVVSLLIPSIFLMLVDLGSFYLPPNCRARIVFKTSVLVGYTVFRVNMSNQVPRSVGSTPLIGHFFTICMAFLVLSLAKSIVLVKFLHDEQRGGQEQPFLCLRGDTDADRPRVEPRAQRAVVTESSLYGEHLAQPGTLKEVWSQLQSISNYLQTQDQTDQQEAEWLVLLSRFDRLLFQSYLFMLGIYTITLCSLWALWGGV

[5] = molecular target: T1, 5-HT3A receptors; assay: Competition binding with [^3H]VUF10166 at 5-HT3A receptors
[6] = molecular target: T2, 5-HT3AB receptors; assay: Competition binding with [^3H]VUF10166 at 5-HT3AB receptors
[7] = molecular target: T3, α7 nACh receptors (Homo sapiens, UniProt P36544); assay: Saturation binding of [^3H]VUF10166 on α7 nACh receptors; details: data not shown
[8] = molecular target: T1, 5-HT3A receptors; assay: biochemical; format: binding; parameters: expressed in transfected cells; host or cells: HEK 293; details: 5-HT3A
[9] = molecular target: T4, 5-HT3A receptor F226C (Homo sapiens, UniProt P46098, F221C); assay: Saturation binding of [^3H]VUF10166 at 5-HT3A receptor mutant; details: F226C Kd versus wild type
T4 construct: expressed in transfected cells; host or cells: HEK 293
Protocol: (§1) Mutagenesis was performed using the QuikChange method (Agilent Technologies Inc., California, USA) on human 5-HT3A cDNA (accession number: P46098) cloned into pcDNA3.1 (Invitrogen, Paisley, UK). Cysteine residues were substituted for amino acids throughout each of the binding loops A–E (Fig. 1). To facilitate comparisons with previous work, we use the numbering of the equivalent residues in the mouse 5-HT3A subunit; for human numbering 5 should be subtracted from each residue number.
(§2) All data were analysed using GraphPad Prism 4.03. […].

[10] = molecular target: T5, 5-HT3A receptor L126C (Homo sapiens, UniProt P46098, L121C); assay: as above; details: L126C Kd versus wild type
T5 construct: expressed in transfected cells; host or cells: HEK 293
Protocol: as §1, §2

[11] = molecular target: T6, 5-HT3A receptor Y153C (Homo sapiens, UniProt P46098, Y148C); assay: as above; details: Y153C Kd versus wild type
T6 construct: expressed in transfected cells; host or cells: HEK 293
Protocol: as §1, §2

[12] = molecular target: T3, α7 nACh receptors; details: unlabelled VUF10166, ref Thompson et al., 2012; cited from earlier work
[13] = molecular target: 5-HT3A receptors; parameters: method as in Thompson et al., 2012; details: ref Thompson et al., 2012, cited from earlier work
[14] = tested on: 5-HT3 receptors; parameters: method as in Thompson et al., 2012; details: at μM concentrations; ref Thompson et al., 2012; cited from earlier work
[15] = molecular target: T1, 5-HT3A receptors; assay: biochemical
[16] = molecular target: T2, 5-HT3AB receptors; assay: biochemical; details: Ki (nM) competition
[17] = molecular target: T1, 5-HT3A receptors; assay: Kinetic measurements (association, dissociation) at 5-HT3A receptors; format: binding; parameters: expressed in transfected cells; host or cells: HEK 293; details: for koff: intercept of plot of kobs versus radioligand concentration; for kon: slope of plot of kobs versus radioligand concentration
[18] = molecular target: T2, 5-HT3AB receptors; assay: Kinetic measurements (association, dissociation) at 5-HT3AB receptors; format: binding; parameters: expressed in transfected cells; host or cells: HEK 293; details: for koff: from kobs plot; for Kd: from kinetic rates, Equ (4), read-out: Kd(nM) (kon/koff)
[19] = molecular target: T7, 5-HT3A receptor H185C (Homo sapiens, UniProt P46098, H180C); assay: Saturation binding of [^3H]VUF10166 at 5-HT3A receptor mutant; details: H185C Kd versus wild type
T7 construct: expressed in transfected cells; host or cells: HEK 293
Protocol: as §1
(§3) All data were analysed using GraphPad Prism 4.03.

[20] = molecular target: T8, 5-HT3A receptor I139C (Homo sapiens, UniProt P46098, I134C); assay: as above; details: I139C Kd versus wild type
T8 construct: expressed in transfected cells; host or cells: HEK 293
Protocol: as §1, §3

[21] = molecular target: T9, 5-HT3A receptor I71C (Homo sapiens, UniProt P46098, I66C); assay: as above; details: I71C Kd versus wild type
T9 construct: expressed in transfected cells; host or cells: HEK 293
Protocol: as §1, §3

[22] = molecular target: T10, 5-HT3A receptor K112C (Homo sapiens, UniProt P46098, K107C); assay: as above; details: K112C Kd versus wild type
T10 construct: expressed in transfected cells; host or cells: HEK 293
Protocol: as §1, §3

[23] = molecular target: T11, 5-HT3A receptor N128C (Homo sapiens, UniProt P46098, N123C); assay: as above; details: N128C Kd versus wild type
T11 construct: expressed in transfected cells; host or cells: HEK 293
Protocol: as §1, §3

[24] = molecular target: T12, 5-HT3A receptor N232C (Homo sapiens, UniProt P46098, N227C); assay: as above; details: N232C Kd versus wild type
T12 construct: expressed in transfected cells; host or cells: HEK 293
Protocol: as §1, §3

[25] = molecular target: T13, 5-HT3A receptor Q151C (Homo sapiens, UniProt P46098, Q146C); assay: as above; details: Q151C Kd versus wild type
T13 construct: expressed in transfected cells; host or cells: HEK 293
Protocol: as §1, §3

[26] = molecular target: T14, 5-HT3A receptor R145C (Homo sapiens, UniProt P46098, R140C); assay: as above; details: R145C Kd versus wild type
T14 construct: expressed in transfected cells; host or cells: HEK 293
Protocol: as §1, §3

[27] = molecular target: T15, 5-HT3A receptor R92C (Homo sapiens, UniProt P46098, R87C); assay: as above; details: R92C Kd versus wild type
T15 construct: expressed in transfected cells; host or cells: HEK 293
Protocol: as §1, §3

[28] = molecular target: T16, 5-HT3A receptor S114C (Homo sapiens, UniProt P46098, S109C); assay: as above; details: S114C Kd versus wild type
T16 construct: expressed in transfected cells; host or cells: HEK 293
Protocol: as §1, §3

[29] = second component, [^3H]VUF10166 > 3 nM

T4 sequence (P46098 24-478 F221C): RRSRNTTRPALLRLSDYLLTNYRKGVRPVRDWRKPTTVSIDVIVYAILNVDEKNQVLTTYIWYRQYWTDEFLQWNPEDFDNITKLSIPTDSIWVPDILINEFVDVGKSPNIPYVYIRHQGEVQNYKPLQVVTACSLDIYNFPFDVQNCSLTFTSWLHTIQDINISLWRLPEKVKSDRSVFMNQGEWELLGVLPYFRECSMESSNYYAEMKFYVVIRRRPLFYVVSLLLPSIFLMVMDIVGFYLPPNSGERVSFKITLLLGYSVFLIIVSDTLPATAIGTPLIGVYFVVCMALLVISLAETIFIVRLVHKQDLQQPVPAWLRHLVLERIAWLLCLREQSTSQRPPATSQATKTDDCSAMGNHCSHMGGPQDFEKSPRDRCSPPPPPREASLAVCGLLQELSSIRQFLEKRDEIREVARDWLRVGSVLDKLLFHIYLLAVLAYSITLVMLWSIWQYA
T6 sequence (P46098 24-478 Y148C): as the sequence (P46098 24-478 F221C) above, with Y125C, C198F counted along it
T3 sequence (P36544 23-502): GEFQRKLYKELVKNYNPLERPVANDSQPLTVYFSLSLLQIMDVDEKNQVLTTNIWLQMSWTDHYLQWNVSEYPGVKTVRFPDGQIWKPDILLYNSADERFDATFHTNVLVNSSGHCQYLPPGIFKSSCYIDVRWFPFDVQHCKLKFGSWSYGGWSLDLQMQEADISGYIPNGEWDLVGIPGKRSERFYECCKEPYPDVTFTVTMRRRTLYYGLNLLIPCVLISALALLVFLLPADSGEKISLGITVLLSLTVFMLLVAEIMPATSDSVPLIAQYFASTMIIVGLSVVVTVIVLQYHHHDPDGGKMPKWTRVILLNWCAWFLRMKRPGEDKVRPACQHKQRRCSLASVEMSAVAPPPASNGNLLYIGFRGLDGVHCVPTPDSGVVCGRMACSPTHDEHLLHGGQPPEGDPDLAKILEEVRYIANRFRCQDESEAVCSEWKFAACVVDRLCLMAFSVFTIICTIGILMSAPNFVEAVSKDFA
T5 sequence (P46098 24-478 L121C): as the sequence (P46098 24-478 F221C) above, with L98C, C198F counted along it
T12 sequence (P46098 24-478 N227C): as the sequence (P46098 24-478 F221C) above, with C198F, N204C counted along it
T13 sequence (P46098 24-478 Q146C): as the sequence (P46098 24-478 F221C) above, with Q123C, C198F counted along it
T16 sequence (P46098 24-478 S109C): as the sequence (P46098 24-478 F221C) above, with S86C, C198F counted along it
T15 sequence (P46098 24-478 R87C): as the sequence (P46098 24-478 F221C) above, with R64C, C198F counted along it
T14 sequence (P46098 24-478 R140C): as the sequence (P46098 24-478 F221C) above, with R117C, C198F counted along it
T11 sequence (P46098 24-478 N123C): as the sequence (P46098 24-478 F221C) above, with N100C, C198F counted along it
T8 sequence (P46098 24-478 I134C): as the sequence (P46098 24-478 F221C) above, with I111C, C198F counted along it
T9 sequence (P46098 24-478 I66C): as the sequence (P46098 24-478 F221C) above, with I43C, C198F counted along it
T10 sequence (P46098 24-478 K107C): as the sequence (P46098 24-478 F221C) above, with K84C, C198F counted along it
T7 sequence (P46098 24-478 H180C): as the sequence (P46098 24-478 F221C) above, with H157C, C198F counted along it

CC[C@@]1(O)C(=O)OCc2c1cc1n(c2=O)Cc2cc3c(CN(C)C)c(O)ccc3nc2-1 [topotecan]
effect on 5-HT3A receptors (in words) [1]: inhibit
effect on 5-HT3AB receptors (in words) [2]: potentiate

NC(N)=NC(N)=Nc1cccc(Cl)c1 [mCPBG, meta-chlorophenylbiguanide]
pIC50 5-HT3A [3]: 6.88 ± 0.13 (7)
pIC50 5-HT3AB [4]: 6.64 ± 0.12 (5)
inhibition of specific [^3H]VUF10166 binding (in words) ([5]; 5-HT3A): inhibited
pIC50 5-HT3A ([5]; competition with 0.2 nM [^3H]VUF10166): 7.49 ± 0.06 (4)
inhibition of specific [^3H]VUF10166 binding (in words) ([6]; 5-HT3AB): inhibited
pIC50 5-HT3AB ([6]; competition with 0.6 nM [^3H]VUF10166): 6.07 ± 0.20 (5)

[3H]CN1CCN(c2nc3ccccc3nc2Cl)CC1 [[^3H]VUF10166, 2-chloro-3-(4-[^3H]methylpiperazin-1-yl)quinoxaline]
specific saturable binding (in words) [7]: no specific saturable binding
non-specific binding ([8]; non-specific binding determined with 2 mM quipazine): < 5%
Bmax ([8]; paired samples): 2229 ± 158 fmol/mg

CN1CCN(c2nc3ccccc3nc2Cl)CC1 [VUF10166, 2-chloro-3-(4-methylpiperazin-1-yl)quinoxaline]
Fold change [9]: 7
Fold change [10]: ~4
Fold change [11]: 10
competition with [^3H]epibatidine (in words) [12]: does not compete
pKi ([13]; 5-HT3A receptors): ~10
affinity at 5-HT3A relative to 5-HT3AB receptors [13]: ~100 fold
agonist activity (in words) [14]: low efficacy partial agonist
Ki [15]: 0.24 ± 0.11 nM
Ki [16]: 37 nM and 36.7 nM
Kd ([8]; tritiated ligand, transfected HEK 293 cells, 0 °C, read-out: Kd (nM) saturation): 0.18 ± 0.04 nM
Kd ([17]; calculated from kinetic rates, Equ (4), read-out: Kd(nM) (kon/koff)): 0.16 nM
koff ([17]; read-out: koff (converted)): 0.000167 s⁻¹
kon ([17]; read-out: kon (converted)): 1.04e+06 M⁻¹ s⁻¹
kon ([18]; first component of two site fit, [^3H]VUF10166 < 3 nM): 1.02e+06 M⁻¹ s⁻¹
koff ([18]; first component, [^3H]VUF10166 < 3 nM, read-out: koff (converted)): 0.0004 s⁻¹
Kd ([18]; first component): 0.38 nM
Kd ([18]; second component (>3 nM)): 22.4 nM
kon ([18]; second component of two site fit, [^3H]VUF10166 > 3 nM): 120000 M⁻¹ s⁻¹
koff [18, 29]: 0.0027 s⁻¹
koff ([18]; second component, [^3H]VUF10166 > 3 nM, read-out: koff (converted)): 0.00267 s⁻¹

[3H]CN1CCN(c2nc3ccccc3nc2Cl)CC1 [[^3H]VUF10166] [2-chloro-3-(4-[^3H]methylpiperazin-1-yl)quinoxaline]
Fold change [9]: 7.6
Fold change [10]: 4.2
Fold change [11]: 9.7
Fold change [19]: 4.5
Fold change [20]: 7.4
Fold change [21]: 1.1
Fold change [22]: 1.6
Fold change [23]: 3.3
Fold change [24]: 9.0
Fold change [25]: 8.7
Fold change [26]: 4.6
Fold change [27]: 4.2
Fold change [28]: 1.0
kon determined directly from kobs values using Equ (5) [17]: 8.24e+07 M/min
koff from dissociation, single exponential ([17]; dissociation in 2 mM quipazine): 0.000183 ± 1.7e-05 s⁻¹
koff [17]: 0.00017 s⁻¹
kon [17]: 1.04e+06 M⁻¹ s⁻¹
average kon determined from kobs (Equ (5)) ([18]; below 3 nM [^3H]VUF10166): 8.77e+07 M/min
koff from dissociation, double exponential, fast component ([18]; dissociation in 2 mM quipazine): 0.00378 ± 0.000933 s⁻¹
koff from dissociation, double exponential, slow component ([18]; dissociation in 2 mM quipazine): 0.000167 ± 5e-05 s⁻¹
koff ([18]; first component, [^3H]VUF10166 < 3 nM): 0.0004 s⁻¹
koff [18, 29]: 0.0027 s⁻¹
